Like-named read-outs stand apart in the source and are kept apart here.
Assays:
mesenteric artery = assay: Relaxation of mesenteric artery (KCl-contracted); settings: rabbit mesenteric artery contracted with 15 to 20 mM KCl, read-out: ED50 (concentration attaining 50% of complete relaxation)
Experimental: 1. Relaxation of Mesenteric Artery
A rabbit of Japanese local variety weighing about 3 kg was bled to death. Then, the abdomen of the rabbit was dissected to locate a mesenteric artery. […] Thus, shrinking and relaxation of the artery could be measured as a load on the transducer. To the organ bath, KCl was added so that the KCl concentration became 15 to 20 mM, causing the artery to shrink. Then, the compounds of the present invention were added to the organ bath to observe relaxation of the artery.
The effect of the compounds of the present invention on relaxation of mesenteric artery was examined according to the method as mentioned hereinbefore.

bronchial tubes = assay: Inhibition of histamine contraction of bronchial tubes (relaxation of bronchial tubes); settings: guinea pig bronchial tube, 10 μM histamine, Table 16, read-out: ED50 (50% decrease of histamine contraction of bronchial tubes)
Experimental: 3. Inhibition of Histamine Contraction of Bronchial Tubes (Relaxation of Bronchial Tubes)
That is, a bronchial tube sample taken from a guinea pig was suspended in the 20-ml bath filled with Krebs-Henseleit nutrient solution and maintained at a temperature of 37° C. To the bath was added histamine so that the histamine concentration became 10 μM, causing the bronchial tube sample to contract. After the contraction became stable, the compounds of the present invention were added cumulatively to the bath to observe relaxation of the bronchial tube sample.
The effect of the compounds of the present invention on relaxation of bronchial tubes was examined according to the method as mentioned hereinbefore.

| Molecule | EC50 (mesenteric artery; Oryctolagus cuniculus) [µM] | EC50 (bronchial tubes; Cavia porcellus) [µM] | EC50 (mesenteric artery) [µM] | EC50 (bronchial tubes) [µM] |
| --- | --- | --- | --- | --- |
| CCCCCN(CCCCCCNCc1ccccc1)S(=O)(=O)c1cccc2cnccc12 [Compound (34), N-(6-benzylaminohexyl)-N-pentyl-5-isoquinolinesulfonamide] | 20 | 21 | – | – |
| CCCCCCC(CN(CCCC)S(=O)(=O)c1cccc2cnccc12)NCCC (stereo not shown) [Compound (38), N-(2-propylaminoocytyl)-N-butyl-5-isoquinolinesulfonamide] | 8 | 23 | – | – |
| CCCCCCN(C(C)CNC(C)C)S(=O)(=O)c1cccc2cnccc12 (stereo not shown) [(39), N-hexyl-N-(2-isopropylamino-1-methylethyl)-5-isoquinolinesulfonamide] | 11 | 20 | – | – |
| CC(C)NC1CCN(S(=O)(=O)c2cccc3cnccc23)CC1 [Compound (55), 1-(5-isoquinolinesulfonyl)-4-isopropylaminopiperidine] | 17 | 12 | – | – |
| NC1CCN(S(=O)(=O)c2cccc3cnccc23)C1 (stereo not shown) [Compound (78), 1-(5-isoquinolinesulfonyl)-3-aminopyrrolidine] | 12 | 30 | – | – |
| O=S(=O)(c1cccc2cnccc12)N1CCC(NCc2ccccc2)CC1 [Compound (60), 1-(5-isoquinolinesulfonyl)-4-benzylaminopiperidine] | 19 | 13 | – | – |
| NC1CCN(S(=O)(=O)c2cccc3c(O)nccc23)CC1 [Compound (79), 1-(1-hydroxy-5-isoquinolinesulfonyl)-4-aminopiperidine] | 15 | 13 | – | – |
| CN(CCN)S(=O)(=O)c1cccc2cnccc12 [Compound (1), N-(2-aminoethyl)-N-methyl-5-isoquinolinesulfonamide] | 5 | 8 | – | – |
| CCCCCCN(CCN(C)C)S(=O)(=O)c1cccc2cnccc12 [Compound (43), N-(2-dimethylaminoethyl)-N-hexyl-5-isoquinolinesulfonamide] | 20 | 27 | – | – |
| CCCNCC(C)CCCCN(C)S(=O)(=O)c1cccc2cnccc12 (stereo not shown) [Compound (41), N-methyl-N-(6-propylamino-5-methylhexyl)-5-isoquinolinesulfonamide] | 17 | 22 | – | – |
| CCCCCCN(CC(C)NCC)S(=O)(=O)c1cccc2cnccc12 (stereo not shown) [Compound (36), N-(2-ethylaminopropyl)-N-hexyl-5-isoquinolinesulfonamide] | 7 | 30 | – | – |
| CCCCCCN(C(C)CN(CC)CC)S(=O)(=O)c1cccc2cnccc12 (stereo not shown) [Compound (49), N-(2-diethylamino-1-methylethyl)-N-hexyl-5-isoquinolinesulfonamide] | – | 15 | – | – |
| CCCCCCN(CCN1CCCCC1)S(=O)(=O)c1cccc2cnccc12 [Compound (45), N-hexyl-N-(2-piperidinoethyl)-5-isoquinolinesulfonamide] | 23 | 17 | – | – |
| CN(C)C1CCCN(S(=O)(=O)c2cccc3cnccc23)C1 (stereo not shown) [Compound (73), 1-(5-isoquinolinesulfonyl)-3-dimethylaminopiperidine] | 19 | 26 | – | – |
| CCNCCN(CC)S(=O)(=O)c1cccc2cnccc12 [Compound (26), N-(2-ethylaminoethyl)-N-ethyl-5-isoquniolinesulfonamide] | 11 | 8 | – | – |
| CCCCCCN(CCCCCN)S(=O)(=O)c1cccc2cnccc12 [Compound (9), N-(5-aminopentyl)-N-hexyl-5-isoquinolinesulfonamide] | 9 | 15 | – | – |
| 1-(1-chloro-5-isoquinolinesulfonyl)-3-(N-hexyl-N-methylamino)piperidine [Compound (100)] | – | – | 22 | 22 |
| CC1CCN(S(=O)(=O)c2cccc3cnccc23)CC1N (stereo not shown) [Compound (75), 1-(5-isoquinolinesulfonyl)-3-amino-4-methylpiperidine] | 20 | 16 | – | – |
| CCCNC1CCN(S(=O)(=O)c2cccc3c(O)nccc23)CC1 [Compound (81), 1-(1-hydroxy-5-isoquinolinesulfonyl)-4-propylaminopiperidine] | 12 | 14 | – | – |
| CCCCCCNC1CCCN(S(=O)(=O)c2cccc3c(O)nccc23)C1 (stereo not shown) [Compound (88), 1-(1-hydroxy-5-isoquinolinesulfonyl)-3-hexylaminopiperidine] | 12 | 9 | – | – |
| O=S(=O)(c1cccc2cnccc12)N1CCCC(Nc2ccccc2)C1 (stereo not shown) [Compound (68), 1-(5-isoquinolinesulfonyl)-3-phenylaminopiperidine] | 16 | – | – | – |

| Molecule | EC50 (mesenteric artery; Oryctolagus cuniculus) [µM] | EC50 (bronchial tubes; Cavia porcellus) [µM] | EC50 (mesenteric artery) [µM] | EC50 (bronchial tubes) [µM] |
| --- | --- | --- | --- | --- |
| O=S(=O)(c1cccc2c(O)nccc12)N1CCC(NCc2ccccc2)CC1 [Compound (83), 1-(1-hydroxy-5-isoquinolinesulfonyl)-4-benzylaminopiperidine] | 18 | 19 | – | – |
| NCCN(Cc1ccccc1)S(=O)(=O)c1cccc2cnccc12 [Compound (6), N-(2-aminoethyl)-N-benzyl-5-isoquinolinesulfonamide] | 4 | 5 | – | – |
| CCCCCCCCN(CCN)S(=O)(=O)c1cccc2cnccc12 [Compound (5), N-(2-aminoethyl)-N-octyl-5-isoquinolinesulfonamide] | 2 | 6 | – | – |
| CCN(CCCCC(C)CN)S(=O)(=O)c1cccc2cnccc12 (stereo not shown) [Compound (22), N-(5-aminomethylhexyl)-N-ethyl-5-isoquinolinesulfonamide] | 21 | 20 | – | – |
| CCN(C(C)CN)S(=O)(=O)c1cccc2cnccc12 (stereo not shown) [Compound (17), N-(2-amino-1-methylethyl)-N-ethyl-5-isoquinolinesulfonamide] | 14 | 10 | – | – |
| CCCCCCN(CCNCc1ccccc1)S(=O)(=O)c1cccc2cnccc12 [Compound (32), N-(2-benzylamioethyl)-N-hexyl-5-isoquinolinesulfonamide] | 8 | 17 | – | – |
| CCCCCCN(CCNCCCC)S(=O)(=O)c1cccc2cnccc12 [Compound (27), N-(2-butylaminoethyl)-N-hexyl-5-isoquinolinesulfonamide] | 13 | 13 | – | – |
| CCCN(C(C)CCCNCc1ccccc1)S(=O)(=O)c1cccc2cnccc12 (stereo not shown) [Compound (40), N-(4-benzylamino-1-methylbutyl)-N-propyl-5-isoquinolinesulfonamide] | 14 | 22 | – | – |
| O=S(=O)(c1cccc2cnccc12)N1CCC(NCCc2ccccc2)CC1 [Compound (61), 1-(5-isoquinolinesulfonyl)-4-phenethylaminopiperidine] | 15 | 15 | – | – |
| CCNC1CCN(S(=O)(=O)c2cccc3cnccc23)CC1 [Compound (53), 1-(5-isoquinolinesulfonyl)-4-ethylaminopiperidine] | 14 | 11 | – | – |
| CCCN(CC(C)CN)S(=O)(=O)c1cccc2cnccc12 (stereo not shown) [Compound (20), N-(3-amino-2-methylpropyl)-N-propyl-5-isoquinolinesulfonamide] | 17 | 15 | – | – |
| CCCCCCN(CCN1CCOCC1)S(=O)(=O)c1cccc2cnccc12 [Compound (46), N-hexyl-N-(2-morpholinoethyl)-5-isoquinolinesulfonamide] | 23 | 25 | – | – |
| CCCCCCCCC(N)CN(CCCCCC)S(=O)(=O)c1cccc2cnccc12 (stereo not shown) [Compound (15), N-(2-aminodecyl)-N-hexyl-5-isoquinolinesulfonamide] | 7 | 25 | – | – |
| CC(C)N(CCN)S(=O)(=O)c1cccc2cnccc12 [Compound (2), N-(2-aminoethyl)-N-isopropyl-5-isoquinolinesulfonamide] | 4 | 5 | – | – |
| CN(C)C1CCCN(S(=O)(=O)c2cccc3c(O)nccc23)C1 (stereo not shown) [Compound (90), 1-(1-hydroxy-5-isoquinolinesulfonyl)-3-dimethylaminopiperidine] | 23 | 17 | – | – |
| CCCNC1CCCN(S(=O)(=O)c2cccc3c(O)nccc23)C1 (stereo not shown) [Compound (85), 1-(1-hydroxy-5-isoquinolinesulfonyl)-3-propylaminopiperidine] | 13 | 11 | – | – |
| NC1CCN(S(=O)(=O)c2cccc3cnccc23)CC1 [Compound (51), 1-(5-isoquinolinesulfonyl)-4-aminopiperidine] | 15 | 8 | – | – |
| CNC1CCN(S(=O)(=O)c2cccc3cnccc23)C1 (stereo not shown) [Compound (76), 1-(5-isoquinolinesulfonyl)-3-methylaminopyrrolidine] | 13 | 27 | – | – |
| CCCN(CCCCCCN)S(=O)(=O)c1cccc2cnccc12 [Compound (10), N-(6-aminohexyl)-N-propyl-5-isoquinolinesulfonamide] | 15 | 16 | – | – |
| CCCCNC1CCN(S(=O)(=O)c2cccc3cnccc23)CC1 [Compound (56), 1-(5-isoquinolinesulfonyl)-4-butylaminopiperidine] | 14 | 10 | – | – |
| CCCCCCN(CCC(C)CN)S(=O)(=O)c1cccc2cnccc12 (stereo not shown) [Compound (23), N-(4-amino-3-methylbutyl)-N-hexyl-5-isoquinolinesulfonamide] | 18 | 18 | – | – |
